Data reported in patent US20080227730A1, “9A-Carbamoyl and Thiocarbamoyl Azalides With Antimalarial Activity” (GLAXOSMITHKLINE ISTRAZIVACKI CENTAR ZAGREB D.O.O., priority 2005, published 2008).
Values after ≈ are worked out from the molar mass of the structure shown.

Tests used:
[1] = test system: Plasmodium falciparum W-2 (CDC/Indochina III); test: In vitro antimalarial [3H]-hypoxanthine incorporation serial dilution assay, clone W2; format: cell-based; conditions: P. falciparum W2 clone, parasites exposed for 72 hours, azithromycin value averaged
Excerpt: (§1) The in vitro screens for intrinsic antimalarial activity were based on modifications of the procedures described by Desjardins R E, Canfield C J, Haynes J D, Chulay J D. (Quantitative assessment of antimalarial activity in vitro by a semiautomated microdilution technique. Antimicrob Agents Chemother. 1979 December; 16(6):710-8.), Chulay J D, Haynes J D, Diggs C L. (Plasmodium falciparum: Assessment of in vitro growth by [3H]hypoxanthine incorporation. Exp. Parasitol. 1983 55:138-146.), and Milhous W N, Weatherly N F, Bowdre J H, Desjardins R E. (In vitro activities of and mechanisms of resistance to antifol antimalarial drugs. Antimicrob Agents Chemother. 1985 April; 27(4):525-30.). The system was limited to the assessment of the intrinsic activity against the erythrocytic asexual life cycle (blood schizontocides). Two Plasmodium falciparum clones from CDC/Indochina III (W-2) and CDC/Sierra Leone I (D-6) (Oduola A M, Weatherly N F, Bowdre J H, Desjardins R E. Plasmodium falciparum: cloning by single-erythrocyte micromanipulation and heterogeneity in vitro. Exp Parasitol. 1988 66(1):86-95.) were used for all assays. TM91C235, a multiple drug resistant isolate from Thailand, was used for the prescreening assay. W-2 is resistant to chloroquine, quinine, and pyrimethamine and susceptible to mefloquine. D-6 tends to be more resistant to mefloquine and susceptible to chloroquine, quinine, and pyrimethamine. All documents cited in this paragraph are incorporated by reference in their entirety.
(§2) All parasites were maintained in continuous long term cultures in RPMI-1640 medium supplemented with 6% washed human A positive (A+)(erythrocytes, 25 mM Hepes, […], and 10% heat inactivated A+ human plasma or ALBUMAX® (lipid-rich bovine serum albumin; Invitrogen, Carlsbad, Calif.). All cultures and assays were conducted at 37° C. under an atmosphere of 5% CO2 and 5% O2, with a balance of N2.
(§3) The prescreening assay uses TM91C235 diluted at a 0.4% parasitemia in a 1% hematocrit in folic acid free and p-aminobenzoic acid free media RPMI-1640 and ALBUMAX®. One mg of the compound is typically dissolved in 100 μl of dimethyl sulfoxide (DMSO). The compound is further diluted in culture medium (FF) with ALBUMAX® for the first initial starting concentration. The rest of the stock drug solution was kept at −70° C. The isolate was preexposed, in duplicate, at three concentrations (25,000 ng/ml, 2,500 ng/ml, and 25 ng/ml) of the test compound for 48 hr in a 96-well microtiter plate (MTP) using the BIOMEK® 2000 automated laboratory workstation. Each MTP contains chloroquine as control to assess the relative activity of the compound and to monitor the response of TM91C235.
(§4) After the preincubation, [^3H]-hypoxanthine was added to each well of the MTP. (The assay relies on the incorporation of radiolabeled hypoxanthine by the parasites, which indicates reproduction, and inhibition of isotope incorporation was attributed to activity of known or candidate antimalarial drugs). After 72 hr of total incubation time, the MTP were frozen to lyse the erythrocytes and parasites. The parasite DNA was recovered by harvesting the lysate onto glass-fiber filter plates using a Packard FilterMate™ Cell Harvester. The radioactivity was counted on a Packard TopCount™ microplate scintillation counter. The results were recorded as counts per minutes (CPM) per well at each drug concentration divided by the arithmetic mean of the CPM from the three untreated infection parasite control wells.
(§5) The serial dilution assay was conducted using the same assay conditions and stock solution of the compound used for the preliminary screen, described above. Both the D-6 and the W-2 clones were used. The compounds were diluted two-fold over 11 different concentration ranges with a starting concentration that was based on the preliminary screen. […]

[2] = test system: Plasmodium falciparum D-6 (CDC/Sierra Leone I); test: In vitro antimalarial [3H]-hypoxanthine incorporation serial dilution assay, clone D6; format: cell-based; conditions: P. falciparum D6 clone, parasites exposed for 72 hours, azithromycin value averaged
Excerpt: as §1, §2, §3, §4, §5

[3] = test system: Plasmodium falciparum TM91C235; test: In vitro antimalarial [3H]-hypoxanthine incorporation assay, strain TM91C235; format: cell-based; conditions: P. falciparum TM91C235 (multiple drug resistant isolate from Thailand), parasites exposed for 72 hours, azithromycin value averaged
Excerpt: as §1, §2, §3, §4, §5

Plasmodium vivax = conditions: non-immune patients, as compared to controls; cited from earlier work
Plasmodium cynomolgi = conditions: rhesus monkey; cited from earlier work
Plasinodium falciparum = conditions: non-immune patients, Plasmodium falciparum, as compared to controls; cited from earlier work
[4] = test system: Plasmodium yoelii nigeriensis; conditions: cited from earlier work
Plasmodium berghei = conditions: cited from earlier work

| Compound | IC50 [1] | IC50 [2] | IC50 [3] | prophylactic efficacy (Plasmodium vivax) | efficacy in monkey model (Plasmodium cynomolgi) | prophylactic efficacy (Plasinodium falciparum) | activity in mouse model [4] | activity in mouse model (Plasmodium berghei) |
| --- | --- | --- | --- | --- | --- | --- | --- | --- |
| CC[C@H]1OC(=O)[C@H](C)[C@@H](O[C@H]2C[C@@](C)(OC)[C@@H](O)[C@H](C)O2)[C@H](C)[C@@H](O[C@@H]2O[C@H](C)C[C@H](N(C)C)[C@H]2O)[C@](C)(O)C[C@@H](C)CN(C(=O)Nc2ccc(S(=O)(=O)Nc3ccccc3)cc2)[C@H](C)[C@@H](O)[C@]1(C)O [Compound 1] | 0.448 µg/mL (≈ 0.444 µM) | 0.428 µg/mL (≈ 0.424 µM) | 0.299 µg/mL (≈ 0.296 µM) |  |  |  |  |  |
| CC[C@H]1OC(=O)[C@H](C)[C@@H](O[C@H]2C[C@@](C)(OC)[C@@H](O)[C@H](C)O2)[C@H](C)[C@@H](O[C@@H]2O[C@H](C)C[C@H](N(C)C)[C@H]2O)[C@](C)(O)C[C@@H](C)CN(C(=O)Nc2ccc(S(=O)(=O)Nc3ccccn3)cc2)[C@H](C)[C@@H](O)[C@]1(C)O [Compound 2] | > 1.76 µg/mL | 0.251 µg/mL (≈ 0.248 µM) | 1.03 µg/mL (≈ 1.02 µM) |  |  |  |  |  |
| CC[C@H]1OC(=O)[C@H](C)[C@@H](O[C@H]2C[C@@](C)(OC)[C@@H](O)[C@H](C)O2)[C@H](C)[C@@H](O[C@@H]2O[C@H](C)C[C@H](N(C)C)[C@H]2O)[C@](C)(O)C[C@@H](C)CN(C(=O)NS(=O)(=O)c2ccccc2Cl)[C@H](C)[C@@H](O)[C@]1(C)O [Compound 3] | 1.43 µg/mL (≈ 1.5 µM) | 1.11 µg/mL (≈ 1.17 µM) | > 1.62 µg/mL |  |  |  |  |  |
| CC[C@H]1OC(=O)[C@H](C)[C@@H](O[C@H]2C[C@@](C)(OC)[C@@H](O)[C@H](C)O2)[C@H](C)[C@@H](O[C@@H]2O[C@H](C)C[C@H](N(C)C)[C@H]2O)[C@](C)(O)C[C@@H](C)CN(C(=O)Nc2ccc(S(=O)(=O)Nc3cc(C)on3)cc2)[C@H](C)[C@@H](O)[C@]1(C)O [Compound 4] | 1.59 µg/mL (≈ 1.57 µM) | 0.12 µg/mL (≈ 0.118 µM) | > 1.62 µg/mL |  |  |  |  |  |
| CC[C@H]1OC(=O)[C@H](C)[C@@H](O)[C@H](C)[C@@H](O[C@@H]2O[C@H](C)C[C@H](N(C)C)[C@H]2O)[C@](C)(O)C[C@@H](C)CN(C(=O)Nc2ccc(S(=O)(=O)Nc3cc(C)on3)cc2)[C@H](C)[C@@H](O)[C@]1(C)O [Compound 5] | > 1.76 µg/mL | 0.0523 µg/mL (≈ 0.0611 µM) | > 1.62 µg/mL |  |  |  |  |  |
| CC[C@H]1OC(=O)[C@H](C)[C@@H](O)[C@H](C)[C@@H](O[C@@H]2O[C@H](C)C[C@H](N(C)C)[C@H]2O)[C@](C)(O)C[C@@H](C)CN(C(=O)Nc2ccc(S(=O)(=O)Nc3ccccn3)cc2)[C@H](C)[C@@H](O)[C@]1(C)O [Compound 6] | > 1.76 µg/mL | 0.0908 µg/mL (≈ 0.107 µM) | > 1.62 µg/mL |  |  |  |  |  |
| CC[C@H]1OC(=O)[C@H](C)[C@@H](O[C@H]2C[C@@](C)(OC)[C@@H](O)[C@H](C)O2)[C@H](C)[C@@H](O[C@@H]2O[C@H](C)C[C@H](N(C)C)[C@H]2O)[C@](C)(O)C[C@@H](C)CN(C(=O)Nc2cccc(Cl)c2)[C@H](C)[C@@H](O)[C@]1(C)O [Compound 7] | 1.22 µg/mL (≈ 1.37 µM) | 0.583 µg/mL (≈ 0.656 µM) |  |  |  |  |  |  |
| CC[C@H]1OC(=O)[C@H](C)[C@@H](O[C@H]2C[C@@](C)(OC)[C@@H](O)[C@H](C)O2)[C@H](C)[C@@H](O[C@@H]2O[C@H](C)C[C@H](N(C)C)[C@H]2O)[C@](C)(O)C[C@@H](C)CN(C(=O)Nc2cccc3ccccc23)[C@H](C)[C@@H](O)[C@]1(C)O [Compound 8] | 1.9 µg/mL (≈ 2.11 µM) | 0.751 µg/mL (≈ 0.831 µM) | 0.712 µg/mL (≈ 0.788 µM) |  |  |  |  |  |
| CC[C@H]1OC(=O)[C@H](C)[C@@H](O[C@H]2C[C@@](C)(OC)[C@@H](O)[C@H](C)O2)[C@H](C)[C@@H](O[C@@H]2O[C@H](C)C[C@H](N(C)C)[C@H]2O)[C@](C)(O)C[C@@H](C)CN(C(=S)Nc2cccc(Cl)c2)[C@H](C)[C@@H](O)[C@]1(C)O [Compound 9] | 1.5 µg/mL (≈ 1.66 µM) | 0.762 µg/mL (≈ 0.843 µM) |  |  |  |  |  |  |
| CC[C@H]1OC(=O)[C@H](C)[C@@H](O[C@H]2C[C@@](C)(OC)[C@@H](O)[C@H](C)O2)[C@H](C)[C@@H](O[C@@H]2O[C@H](C)C[C@H](N(C)C)[C@H]2OC(C)=O)[C@](C)(O)C[C@@H](C)CN(C(=O)NC(C)C)[C@H](C)[C@@H](O)[C@]1(C)O [Compound 10] | > 1.76 µg/mL | > 0.797 µg/mL | 0.353 µg/mL (≈ 0.41 µM) |  |  |  |  |  |
| CC[C@H]1OC(=O)[C@H](C)[C@@H](O[C@H]2C[C@@](C)(OC)[C@@H](O)[C@H](C)O2)[C@H](C)[C@@H](O[C@@H]2O[C@H](C)C[C@H](N(C)C)[C@H]2O)[C@](C)(O)C[C@@H](C)CN(C(=S)NCc2ccccc2)[C@H](C)[C@@H](O)[C@]1(C)O [Compound 11] | 0.386 µg/mL (≈ 0.436 µM) | 0.253 µg/mL (≈ 0.286 µM) | 0.304 µg/mL (≈ 0.344 µM) |  |  |  |  |  |
| CC[C@H]1OC(=O)[C@H](C)[C@@H](O[C@H]2C[C@@](C)(OC)[C@@H](O)[C@H](C)O2)[C@H](C)[C@@H](O[C@@H]2O[C@H](C)C[C@H](N(C)C)[C@H]2O)[C@](C)(O)C[C@@H](C)CN(C)[C@H](C)[C@@H](O)[C@]1(C)O [azithromycin] |  |  |  | 98.9% | active | 71.6% |  |  |
| midecamycinin |  |  |  |  | no efficacy |  | active | active |
